# Results from patent US4749706A (priority 1986, dated 1988).
# Several values for one entry are separate records, joined by “and”; a condition that tells them apart may be missing. Equal entries are not always repeated. Where two headings read alike, the source gives them in different places.
# What was measured:
# [1] = in vivo
# [2] = target: T1, opiate receptor (Rattus norvegicus, UniProt P33535); experiment: biochemical; format: binding
# T1 construct: from tissue
# [3] = as disclosed in U.S. Pat. No. 4,218,454; cited from earlier work
# [4] = induced Straub tail method (antagonist activity); conditions: for ED50: read-out: Antagonism ED50, Straub Tail
# [5] = mouse jump test (physical dependence); format: in vivo; conditions: after 100 mg/kg naloxone on day 4; 30 min
# Description: (§1) Analgesic activity was measured using the tail-flick assay of D'Amour, F. D., et al, J. Pharmacol. Exper. (1941) 72: 74, or by the writhing assay described by Blumberg, H., et al, Proc. Soc. Exp. Biol. Med. (1965) 118: 763. The antagonist activity, considered a measure of nonaddictiveness, was measured by the opiate receptor assay of Pert, C., et al, Mol. Pharmacol. (1974) 10: 868. Antagonist activity was also measured using the induced Straub tail method as described by De Graw, J., et al, J. Med Chem (1978) 21: 415; and Blumberg, H., et al, Advances in Chemical Psychopharmacology, Vol. 8, M. Braudy, et al, ed. Raven Press, New York, N.Y. (1973), 33-43. A direct and simple assay measuring physical dependence is the mouse jump test described by Saelens, J., et al, Arch Int Pharmacodyn (1971) 190: 213.
# Physical dependence, a much more direct measure of non-addictive properties than antagonist activity, was evaluated using the mouse jump test. Mice are injected intraperitoneally 5 times on day 1 with increasing doses of test compound ranging from 8-100 mg/kg body weight. On days 2 and 3 the mice are given 100 mg/kg 4 times. On day 4 all mice receive 100 mg/kg of the antagonist naloxone in a single dose. The mice are then caged for 30 min, and a record is made of the number jumping during this time.
# [6] = writhing assay (analgesia); format: in vivo; conditions: compared with morphine
# Description: as §1
# [7] = -NaCl, read-out: Opiate Receptor Inhibition 1C50
# [8] = +NaCl, read-out: Opiate Receptor Inhibition 1C50
# T1 sequence (P33535 whole entry): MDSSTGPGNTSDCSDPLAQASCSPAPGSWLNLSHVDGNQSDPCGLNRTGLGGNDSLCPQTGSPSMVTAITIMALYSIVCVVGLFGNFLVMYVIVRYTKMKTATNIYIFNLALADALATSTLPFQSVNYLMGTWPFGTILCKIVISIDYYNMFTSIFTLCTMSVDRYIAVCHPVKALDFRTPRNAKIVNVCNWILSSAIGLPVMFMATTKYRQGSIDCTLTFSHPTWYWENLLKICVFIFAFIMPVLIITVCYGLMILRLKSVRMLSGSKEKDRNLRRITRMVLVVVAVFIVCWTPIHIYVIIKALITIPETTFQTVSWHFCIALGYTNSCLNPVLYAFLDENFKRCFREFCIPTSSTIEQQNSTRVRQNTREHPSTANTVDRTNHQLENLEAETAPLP
smiles,measurement,setting,value
"CC(C1CC1)N1CC[C@]23c4c5ccc(O)c4O[C@H]2[C@@H](O)C=C[C@H]3[C@H]1C5 (single isomer, unassigned; diastereomer b) [N--α-methylcyclopropyl-methyl normorphine (B)] [N-methylcyclopropylmethyl normorphine (diastereomer B)]",potency relative to morphine in the tail flick assay (in words),[1]; sc,only one-fifth as potent as morphine
"CC(C1CC1)N1CC[C@]23c4c5ccc(O)c4O[C@H]2[C@@H](O)C=C[C@H]3[C@H]1C5 (single isomer, unassigned; diastereomer b) [N-methylcyclopropylmethyl normorphine (diastereomer B)]",IC50,[2]; [7],7 nM
"CC[C@@H](C)N1CC[C@]23c4c5ccc(O)c4O[C@H]2[C@@H](O)C=C[C@H]3[C@H]1C5 [N--sec-butyl normorphine (R), reference compound]",IC50,[2]; [8],110 nM
same,IC50,[2]; [7],60 nM
same,addiction liability,[3],little or no addiction liability
same,ED50,[4],16.2 µmol/kg
CN1CC[C@]23c4c5ccc(O)c4O[C@H]2[C@@H](O)C=C[C@H]3[C@H]1C5 [morphine],time after which activity declines substantially,[1],3 h
same,number of mice jumping,[5],10/10
same,"Antagonism ED50, Tail Flick",reversal of analgesia induced by morphine in the tail flick assay,2 µmol/kg
same,"Antagonism ED50, Straub Tail",[4]; Straub tail method,1 µmol/kg
"CC[C@H](C)N1CC[C@]23c4c5ccc(O)c4O[C@H]2[C@@H](O)C=C[C@H]3[C@H]1C5 [N--sec-butyl normorphine (S), reference compound]",IC50,[2]; [8],62 nM
same,IC50,[2]; [7],28 nM
same,addiction liability,[3],little or no addiction liability
same,ED50,[4],7.4 µmol/kg
"CC(C1CC1)N1CC[C@]23c4c5ccc(O)c4O[C@H]2[C@@H](O)C=C[C@H]3[C@H]1C5 (single isomer, unassigned; diastereomer a) [N-methylcyclopropylmethyl normorphine (diastereomer A)]",IC50,[2]; [7],0.23 nM
"CC(C1CC1)N1CC[C@]23c4c5ccc(O)c4O[C@H]2[C@@H](O)C=C[C@H]3[C@H]1C5 (single isomer, unassigned; diastereomer a) [N--α-methylcyclopropyl-methyl normorphine (A)] [N-methylcyclopropylmethyl normorphine (diastereomer A)]",times the affinity of N-sec-butylnormorphine in the opiate assay,[2],about 122 times
same,times the affinity of morphine in the opiate assay,[2],over 43 times
same,times more tightly bound than the higher melting form,"[2]; competitive binding against 3H-dihydromorphine, A versus B",30 times
same,activity relative to the diastereomeric mixture and to diastereomer B,[1],much higher activity
same,oral activity compared with subcutaneous morphine in the tail flick assay,[1],approximated an equivalent dose of morphine administered subcutaneously
same,duration of effectiveness,[1]; po,4 h
same,onset of action,[1]; po,5 to 10 min
same,"times as potent as morphine in tail flick analgesia, oral",[1]; po,6.2 times
same,activity of lower melting diastereomer A relative to higher melting form,[1]; sc,about 25 times
same,times as potent as morphine in the tail flick assay,[1]; sc,5.2 times
same,"Antagonism ED50, Tail Flick",in vivo,> 213 µmol/kg
"C=CCN1CC[C@]23c4c5ccc(O)c4O[C@H]2[C@@H](O)C=C[C@H]3[C@H]1C5 [nalorphine, reference compound]",IC50,[2]; Opiate Receptor Inhibition 1C50,2 nM and 6 nM
same,"Antagonism ED50, Tail Flick",in vivo,2.04 µmol/kg
same,addiction liability,[3],little or no addiction liability
CC(C1CC1)N1CC[C@]23c4c5ccc(O)c4O[C@H]2[C@@H](O)C=C[C@H]3[C@H]1C5 (mixture of isomers) [N-α-Methylcyclopropylmethylnormorphine],IC50,[2]; [8],6 nM
same,IC50,[2]; [7],3 nM
same,potency relative to morphine in the tail flick assay,[1]; sc,about 85%
same,potency relative to morphine in the writhing assay,[6],more than twice as potent
same,addiction liability,[3],little or no addiction liability
same,antagonist potency relative to nalorphine,[4]; in vivo,about one-fourth as potent as nalorphine
same,ED50,[4],4.5 µmol/kg
